What was measured:
DMPK [1] = test: DMPK knockdown by transfected antisense oligonucleotides in DM1 C15 myotubes at 0.5 nM and 50 nM; assay type: cell-based; settings: 72 hours; for Normalized DMPK Remaining: relative to vehicle control = 1.00
How it was run: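 Seven-day-differentiated DM1 C15 myotubes transfected (Lipofectamine MessengerMax) with each oligonucleotide at 0.5 nM or 50 nM final, biological triplicates. After 72 h, DMPK mRNA quantified by qPCR, expressed relative to vehicle-only transfection set to 1.00.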

DMPK [2] = test: Dose-responsive DMPK reduction in DM1 C15 myotubes (EC-50); assay type: cell-based; settings: DM1 C15 differentiated myotubes, 72 hours; for EC50: transfection with Lipofectamine MessengerMax, 0.046-100 nM; for Percent DMPK reduction at 100 nM: transfection
Description: Eighteen oligonucleotides from Example 7 were selected to be evaluated for their ability to reduce DMPK expression in a dose-responsive manner. DM1 C15 myoblasts were prepared as in Example 7 to yield differentiated myotubes in 96-well microplates. After seven days of differentiation, cells were transfected with individual oligonucleotides using Lipofectamine MessengerMax. Each oligonucleotide was tested in triplicate at concentrations of 0.046 nM, 0.137 nM, 0.412 nM, 1.235 nM, 3.704 nM, 11.11 nM, 33.33 nM, and 100 nM by 3-fold serial dilutions using 0.3 μL of Lipofectamine MessengerMax per well.
Following addition of oligonucleotide, cells were incubated for 72 hours prior to harvesting for total RNA. cDNA was synthesized from the total RNA extracts and qPCR was performed to determine expression levels of DMPK using a commercially available Taqman probeset in technical quadruplicate. All qPCR data were analyzed using a traditional ΔΔCT method and were normalized to a plate-based negative control that comprised of cells treated with vehicle control (0.3 μL/well Lipofectamine MessengerMax without any oligonucleotide). Data for each oligonucleotide to was fit to sigmoidal curve in order to determine an effective concentration of each oligonucleotide that provided a half-maximal response (EC-50).

[3] = 0.5 nM oligonucleotide, qPCR, relative to vehicle control
[4] = 50 nM oligonucleotide, qPCR, relative to vehicle control

Row | Substance | Percent DMPK Reduction (DMPK [1]; [3]) [%] | Normalized DMPK Remaining (DMPK [1]; 0.5 nM oligonucleotide, qPCR) | Percent DMPK Reduction (DMPK [1]; [4]) [%] | Normalized DMPK Remaining (DMPK [1]; 50 nM oligonucleotide, qPCR) | EC50 (DMPK [2]) [nM] | Percent DMPK reduction at 100 nM (DMPK [2]) [%] | Percent DMPK Reduction (DMPK [1]; 0.5 nM oligonucleotide) [%] | Normalized DMPK Remaining (DMPK [1]; 0.5 nM oligonucleotide) | Percent DMPK Reduction (DMPK [1]; 50 nM oligonucleotide) [%] | Normalized DMPK Remaining (DMPK [1]; 50 nM oligonucleotide)
1 | 278 (CCAUCUCGGCCGGAAUCCGC; chemistry not given here) [compound 278] | 20.50 | 0.79 | 59.76 | 0.40 | 0.44 | 95.42 |  |  |  | 
2 | 288 (CAGGGACAGCCGCUGGAACU; chemistry not given here) [compound 288] | 32.09 | 0.68 | 58.84 | 0.41 | 6.04 | 90.59 |  |  |  | 
3 | 286 (GCUUCAUCUUCACUACCGCU; chemistry not given here) [compound 286] | 31.44 | 0.69 | 51.78 | 0.48 | 0.03 | 64.06 |  |  |  | 
4 | 270 (GGGCCUGGGACCUCACUGUC; chemistry not given here) [compound 270] | 37.19 | 0.63 | 76.81 | 0.23 | 0.07 | 90.58 |  |  |  | 
5 | 257 (CAUGGCAUACACCUGGCCCG; chemistry not given here) [compound 257] | 31.63 | 0.68 | 74.03 | 0.26 | 0.42 | 75.28 |  |  |  | 
6 | 272 (CUCUGCCGCAGGGACAGCCG; chemistry not given here) [compound 272] | 37.09 | 0.63 | 93.59 | 0.06 | 0.42 | 93.66 |  |  |  | 
7 | 420 (ACAAUCUCCGCCAGGUAGAA; chemistry not given here) [compound 420] |  |  |  |  |  |  | 19.09 | 0.81 | 49.75 | 0.50
8 | 465 (GCAUCCAAAACGUGGAUUGG; chemistry not given here) [compound 465] |  |  |  |  |  |  | 2.54 | 0.97 | 72.69 | 0.27
9 | 375 (CGGCUCAGGCUCUGCCGGGU; chemistry not given here) [compound 375] | 17.97 | 0.82 | 69.03 | 0.31 |  |  |  |  |  | 
10 | 248 (CAAACUUGCUCAGCAGUGUC; chemistry not given here) [compound 248] | 31.45 | 0.69 | 53.93 | 0.46 |  |  |  |  |  | 
11 | 322 (GCUCAGGCUCUGCCGGGUGA; chemistry not given here) [compound 322] | 25.69 | 0.74 | 60.71 | 0.39 |  |  |  |  |  | 
12 | 430 (GUCUAUGGCCAUGACAAUCU; chemistry not given here) [compound 430] |  |  |  |  |  |  | -11.00 | 1.11 | 73.11 | 0.27
13 | 414 (UAGAACAUUUCAUAGGCGAA; chemistry not given here) [compound 414] |  |  |  |  |  |  | 20.23 | 0.80 | 43.67 | 0.56
14 | 331 (GGCCUCAGCCUGGCCGAAAG; chemistry not given here) [compound 331] | 14.49 | 0.86 | 64.80 | 0.35 |  |  |  |  |  | 
15 | 312 (GUCUCAGUGCAUCCAAAACG; chemistry not given here) [compound 312] | 18.85 | 0.81 | 46.13 | 0.54 |  |  |  |  |  | 
16 | 323 (UUGAUGUCCCUGUGCACGUA; chemistry not given here) [compound 323] | 25.67 | 0.74 | 55.13 | 0.45 |  |  |  |  |  | 
17 | 432 (UGCCUCGCGUAGUUGACUGG; chemistry not given here) [compound 432] |  |  |  |  |  |  | 11.03 | 0.89 | 88.02 | 0.12
18 | 393 (UUGGCCGGCGUGGGCCACCA; chemistry not given here) [compound 393] |  |  |  |  |  |  | -3.19 | 1.03 | 44.37 | 0.56
19 | 411 (UUGCCCAUCCACGUCAGGGC; chemistry not given here) [compound 411] |  |  |  |  |  |  | 22.23 | 0.78 | 67.15 | 0.33
20 | 405 (CUUUGGGCAGAUGGAGGGCC; chemistry not given here) [compound 405] |  |  |  |  |  |  | 28.06 | 0.72 | 67.50 | 0.33
21 | 338 (CGGACGGCCCGGCUUGCUGC; chemistry not given here) [compound 338] | 5.42 | 0.95 | 30.41 | 0.70 |  |  |  |  |  | 
22 | 410 (UACAGGUAGUUCUCAUCCUG; chemistry not given here) [compound 410] |  |  |  |  |  |  | 19.83 | 0.80 | 72.51 | 0.27
23 | 371 (GUGGAAUCCGCGUAGAAGGG; chemistry not given here) [compound 371] | 30.55 | 0.69 | 49.34 | 0.51 |  |  |  |  |  | 
24 | 296 (AUCUCCGCCAGGUAGAAGCG; chemistry not given here) [compound 296] | 42.37 | 0.58 | 65.50 | 0.35 |  |  |  |  |  | 
25 | 356 (CUGCCUGCAGCAACUCCAUC; chemistry not given here) [compound 356] | 23.10 | 0.77 | 46.69 | 0.53 |  |  |  |  |  | 
26 | 466 (GUCCAGCAGGAUGUGUCGG; chemistry not given here) [compound 466] |  |  |  |  |  |  | 30.00 | 0.70 | 82.64 | 0.17
27 | 387 (UCGAAGUUGCAUGUGUCGGU; chemistry not given here) [compound 387] |  |  |  |  |  |  | 22.96 | 0.77 | 58.15 | 0.42
